Data from the supplement of paper PMC10307832.

Columns and labels:
Assay in all cases: relative viability (nuclei count vs DMSO), 5 days (fraction); higher = more cells survive
BGJ398 + Foretinib = compound: CCN1CCN(c2ccc(Nc3cc(N(C)C(=O)Nc4c(Cl)c(OC)cc(OC)c4Cl)ncn3)cc2)CC1 [BGJ398] + COc1cc2c(Oc3ccc(NC(=O)C4(C(=O)Nc5ccc(F)cc5)CC4)cc3F)ccnc2cc1OCCCN1CCOCC1 [Foretinib] (partner 0.25 µM)
In short: (§1)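 Nuclei were stained with Hoechst during a one-step fixation (final 0.05% Triton X-100, 1% formaldehyde, 1 ug/ml Hoechst) carried out 5 days after dosing, then counted on 4× images. The cells, lung cancer lines in 1536-well plates, had been dosed by pin tool the day after seeding with one drug alone or a fixed anchor-drug dose plus five library-drug doses (not always all listed) in √10 steps. Relative viability is the nuclei count in treated wells divided by that in vehicle wells, and each value is the median of duplicate plates.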

[1] = compound: C1=CC2=NC=CN=C2C=C1/C=C/3\C(=O)NC(=O)S3 + Cc1nc(Nc2ncc(C(=O)Nc3c(C)cccc3Cl)s2)cc(N2CCN(CCO)CC2)n1 [Dasatinib] (partner 0.075 µM)
In short: as §1

BGJ398 + Crizotinib = compound: CCN1CCN(c2ccc(Nc3cc(N(C)C(=O)Nc4c(Cl)c(OC)cc(OC)c4Cl)ncn3)cc2)CC1 [BGJ398] + C[C@@H](Oc1cc(-c2cnn(C3CCNCC3)c2)cnc1N)c1c(Cl)ccc(F)c1Cl [Crizotinib] (partner 1 µM)
In short: as §1

[2] = compound: C1=CC2=NC=CN=C2C=C1/C=C/3\C(=O)NC(=O)S3 + Cc1nc(NC(=O)N2CCC[C@H]2C(N)=O)sc1-c1ccnc(C(C)(C)C(F)(F)F)c1 [Alpelisib] (partner 2 µM)
In short: as §1

Cell Line	relative viability (BGJ398 + Foretinib; first compound 0.01 µM)	relative viability (BGJ398 + Foretinib; first compound 0.03162 µM)	relative viability (BGJ398 + Foretinib; first compound 0.1 µM)	relative viability (BGJ398 + Foretinib; first compound 0.3162 µM)	relative viability (BGJ398 + Foretinib; first compound 1 µM)	relative viability ([1]; first compound 0.02 µM)	relative viability ([1]; first compound 0.06325 µM)	relative viability ([1]; first compound 0.2 µM)	relative viability ([1]; first compound 0.6325 µM)	relative viability ([1]; first compound 2 µM)	relative viability (BGJ398 + Crizotinib; first compound 0.01 µM)	relative viability (BGJ398 + Crizotinib; first compound 0.03162 µM)	relative viability (BGJ398 + Crizotinib; first compound 0.1 µM)	relative viability (BGJ398 + Crizotinib; first compound 0.3162 µM)	relative viability (BGJ398 + Crizotinib; first compound 1 µM)	relative viability ([2]; first compound 0.02 µM)	relative viability ([2]; first compound 0.06325 µM)	relative viability ([2]; first compound 0.2 µM)	relative viability ([2]; first compound 0.6325 µM)	relative viability ([2]; first compound 2 µM)
NCI-H1437	1.42	1.29	1.27	1.25	1.28	0.656	0.353	0.406	0.353	0.174	0.91	0.924	0.941	1.02	0.877	0.964	1.04	1.03	0.936	0.844
NCI-H1563	0.924	0.931	0.946	0.814	0.752	0.477	0.435	0.523	0.486	0.316	0.875	0.812	0.846	0.794	0.728	0.962	0.941	0.964	0.941	1.01
NCI-H1651	0.753	0.781	0.94	0.73	0.677	0.403	0.452	0.461	0.311	0.21	0.843	0.865	0.874	0.876	0.892	0.888	1.03	0.986	0.937	0.996
NCI-H1666	1.03	1.01	0.963	0.945	1.01	0.716	0.835	0.772	0.819	0.575	0.944	1.06	0.938	1.3	0.96	0.918	1.14	0.863	0.94	0.851
NCI-H1734	0.862	0.879	0.893	0.785	0.827	0.463	0.468	0.467	0.41	0.269	0.611	0.647	0.719	0.594	0.554	0.707	–	0.741	0.622	0.54
NCI-H1755	0.88	0.985	0.919	0.929	0.955	0.43	0.371	0.448	0.355	0.257	0.907	0.888	0.884	0.868	0.84	0.878	0.824	0.941	0.888	0.896
NCI-H1915	1.05	1.06	1.14	1.1	1.09	0.297	0.313	0.332	0.297	0.282	0.847	0.869	0.998	0.936	0.886	1.02	1.17	1.03	1.04	1.06
NCI-H1944	0.946	0.889	0.941	0.831	0.826	0.227	0.191	0.209	0.193	0.147	0.994	1.07	1.13	1.09	1.19	0.856	0.763	0.853	0.776	0.8
NCI-H1975	0.989	1.12	1.06	0.879	0.97	0.293	0.38	0.369	0.334	0.318	1.03	0.979	1.1	1.07	0.948	0.603	0.778	0.63	0.574	0.578
NCI-H1993	0.833	0.67	0.883	0.842	0.735	0.516	0.592	0.667	0.581	0.521	0.866	0.794	0.912	0.959	0.922	0.661	0.743	0.634	0.553	0.602
NCI-H2009	1.11	1.24	1.22	1.22	1.26	0.312	0.31	0.358	0.272	0.175	1	1.04	1.02	1.04	1.02	1.24	1.21	1.17	1.18	1.21
NCI-H2023	0.847	0.997	0.79	0.805	0.905	0.5	0.55	0.582	0.446	0.246	0.618	0.62	0.605	0.747	0.655	0.57	0.609	0.587	0.606	0.511
NCI-H2085	1	1.12	0.909	0.903	0.781	0.226	0.212	0.248	0.257	0.213	0.836	0.871	1.05	0.892	1.01	0.991	1.01	1.04	0.885	1.02
NCI-H2087	1.05	1.33	1.18	1.15	1.09	0.761	0.713	0.911	0.857	0.507	0.923	0.831	0.865	0.911	0.863	0.965	1.3	1.09	1.11	1.2
NCI-H2126	1.19	1.28	1.26	1.2	1.12	0.499	0.625	0.614	0.629	0.266	1.12	1.01	0.997	0.955	1.05	0.662	0.786	0.752	0.757	0.639
NCI-H2170	1.02	1.04	1.06	0.977	1.04	0.495	0.611	0.508	0.48	0.597	1.09	1.22	1.29	1.25	1.31	0.757	0.761	0.928	0.769	0.746
